{"source": "patent US8034803B2", "about": "“Photodynamic therapy of occult age-related macular degeneration” (QLT Inc., priority 2001, dated 2011)", "key": {"[1]": {"system": "occult choroidal neovascular lesions", "assay": "Verteporfin PDT of occult CNV lesions versus placebo, best corrected visual acuity at 24 months", "assay_type": "in vivo, human", "description": "Subjects having, suspected of having, or otherwise afflicted with occult neovascular lesions were evaluated for best corrected visual acuity as outlined in Example 1, and their lesion size determined angiographically as outlined in Example 2. […] The greatest linear dimension of the entire CNV lesion was […], corresponding to 9 Disc Areas. Subjects were evaluated for visual acuity and lesion size about 1 week prior to treatment. Subjects were randomly assigned to a treatment group and a placebo group.\nFor each subject in the treatment group, a 15 mg-vial of liposomally-formulated verteporfin (Verteporfin for Injection (Visudyne™) was reconstituted with 7 mL of sterile water for injection to provide 7.5 mL containing a final concentration of 2 mg/mL. The volume of reconstituted drug required to achieve a dose of 6 mg/M^2 (based upon the height and weight of the subject, calculated from a nomogram) was withdrawn from the vial and diluted with 5% dextrose for injection to make a total infusion volume of 30 mL. The full infusion volume was administered intravenously over 10 minutes using an appropriate syringe pump and in-line filter. Fifteen minutes after the start of the infusion, light was administered to the lesion from a diode laser through a fiber optic delivered via a slit lamp, and utilizing a suitable lens. A light dose of 50J/cm^2 was applied at a fluency rate of 600 mW/cm^2, 50J/cm^2 (83 second exposure).\nSubjects were evaluated by fluorescein angiography approximately every three months, and their best corrected visual acuity was assessed. Subjects were retreated if evidence of CNV leakage was detected by fluorescein angiography."}, "[2]": {"system": "CNV lesions classified as predominantly classic or minimally classic", "settings": "cited from earlier work"}, "[3]": {"settings": "baseline visual acuity <65 letters, lesion size all, 24 months"}, "[4]": {"settings": "baseline visual acuity <65 letters, lesion size ≦4DA, 24 months"}, "[5]": {"settings": "baseline visual acuity <65 letters, lesion size ≧4DA, 24 months"}, "[6]": {"settings": "baseline visual acuity ≧65 letters, lesion size all, 24 months"}, "[7]": {"settings": "baseline visual acuity ≧65 letters, lesion size ≦4DA, 24 months"}, "[8]": {"settings": "baseline visual acuity ≧65 letters, lesion size ≧4DA, 24 months"}}, "note": "Read-outs that look alike come from different tables or passages of the source."}
{"substance": "verteporfin", "values": [{"measurement": "30 Letter Response Rate (percent of subjects losing less than 30 letters) Difference V-P", "setting": "[1]; [3]", "value": 27.5, "unit": "%"}, {"measurement": "Mean VA Difference", "setting": "[1]; [3]", "value": 11.7}, {"measurement": "15 Letter Response Rate (percent of subjects losing less than 15 letters) Difference V-P", "setting": "[1]; baseline visual acuity <65 letters, lesion size all, 24 months after initial treatment, 6 mg/M^2 i.v., 50 J/cm^2", "value": 33.8, "unit": "%"}, {"measurement": "15 Letter Response Rate (percent of subjects losing less than 15 letters) Difference V-P", "setting": "[1]; [4]", "value": 43.8, "unit": "%"}, {"measurement": "30 Letter Response Rate (percent of subjects losing less than 30 letters) Difference V-P", "setting": "[1]; [4]", "value": 19.4, "unit": "%"}, {"measurement": "Mean VA Difference", "setting": "[1]; [4]", "value": 12.3}, {"measurement": "15 Letter Response Rate (percent of subjects losing less than 15 letters) Difference V-P", "setting": "[1]; [5]", "value": 21.5, "unit": "%"}, {"measurement": "30 Letter Response Rate (percent of subjects losing less than 30 letters) Difference V-P", "setting": "[1]; [5]", "value": 30.0, "unit": "%"}, {"measurement": "Mean VA Difference", "setting": "[1]; [5]", "value": 9.4}, {"measurement": "15 Letter Response Rate (percent of subjects losing less than 15 letters) Difference V-P", "setting": "[1]; [6]", "value": "−3.9", "unit": "%"}, {"measurement": "30 Letter Response Rate (percent of subjects losing less than 30 letters) Difference V-P", "setting": "[1]; [6]", "value": 8.5, "unit": "%"}, {"measurement": "Mean VA Difference", "setting": "[1]; [6]", "value": 1.5}, {"measurement": "15 Letter Response Rate (percent of subjects losing less than 15 letters) Difference V-P", "setting": "[1]; [7]", "value": 12.5, "unit": "%"}, {"measurement": "30 Letter Response Rate (percent of subjects losing less than 30 letters) Difference V-P", "setting": "[1]; [7]", "value": 26.8, "unit": "%"}, {"measurement": "Mean VA Difference", "setting": "[1]; [7]", "value": 9.3}, {"measurement": "15 Letter Response Rate (percent of subjects losing less than 15 letters) Difference V-P", "setting": "[1]; [8]", "value": "−24", "unit": "%"}, {"measurement": "30 Letter Response Rate (percent of subjects losing less than 30 letters) Difference V-P", "setting": "[1]; [8]", "value": "−5.3", "unit": "%"}, {"measurement": "Mean VA Difference", "setting": "[1]; [8]", "value": "−3.3"}, {"measurement": "response of subjects having occult lesions to PDT", "setting": "[1]; study of Example 3, in words", "value": "respond to PDT"}, {"measurement": "treatment benefit with verteporfin PDT", "setting": "[2]; lesions classified as minimally classic", "value": "did not"}, {"measurement": "treatment benefit with verteporfin PDT", "setting": "[2]; lesions classified as predominantly classic", "value": "large treatment benefit"}]}
